In the supplement of paper PMC13380429:

Legend:
Conditions in all cases: 72 h
Caco-2 [1] = assay: cell viability relative to DMSO; higher = less toxic
Calu-3 [2] = assay: as above
HepG2 [3] = assay: as above
U2OS [4] = assay: as above
Vero E6 [5] = assay: as above
Caco-2 [6] = assay: relative viability EC50 (midpoint between 100% and the lowest measured viability); higher = less toxic
Calu-3 [7] = assay: as above
HepG2 [8] = assay: as above
U2OS [9] = assay: as above
Vero E6 [10] = assay: as above
Caco-2 [11] = assay: drug sensitivity score (DSS) for viability; higher = more toxic; extreme values may be limits of the assay
Calu-3 [12] = assay: as above
HepG2 [13] = assay: as above
U2OS [14] = assay: as above
Vero E6 [15] = assay: as above

| Compound | cell viability (Caco-2 [1]; 1 nM) [%] | cell viability (Caco-2 [1]; 10 nM) [%] | cell viability (Caco-2 [1]; 100 nM) [%] | cell viability (Caco-2 [1]; 1000 nM) [%] | cell viability (Caco-2 [1]; 10000 nM) [%] | cell viability (Calu-3 [2]; 1 nM) [%] | cell viability (Calu-3 [2]; 10 nM) [%] | cell viability (Calu-3 [2]; 100 nM) [%] | cell viability (Calu-3 [2]; 1000 nM) [%] | cell viability (Calu-3 [2]; 10000 nM) [%] | cell viability (HepG2 [3]; 1 nM) [%] | cell viability (HepG2 [3]; 10 nM) [%] | cell viability (HepG2 [3]; 100 nM) [%] | cell viability (HepG2 [3]; 1000 nM) [%] | cell viability (HepG2 [3]; 10000 nM) [%] | cell viability (U2OS [4]; 1 nM) [%] | cell viability (U2OS [4]; 10 nM) [%] | cell viability (U2OS [4]; 100 nM) [%] | cell viability (U2OS [4]; 1000 nM) [%] | cell viability (U2OS [4]; 10000 nM) [%] | cell viability (Vero E6 [5]; 1 nM) [%] | cell viability (Vero E6 [5]; 10 nM) [%] | cell viability (Vero E6 [5]; 100 nM) [%] | cell viability (Vero E6 [5]; 1000 nM) [%] | cell viability (Vero E6 [5]; 10000 nM) [%] | relative viability EC50 (Caco-2 [6]) [µM] | relative viability EC50 (Calu-3 [7]) [µM] | relative viability EC50 (HepG2 [8]) [µM] | relative viability EC50 (U2OS [9]) [µM] | relative viability EC50 (Vero E6 [10]) [µM] | drug sensitivity score (Caco-2 [11]) | drug sensitivity score (Calu-3 [12]) | drug sensitivity score (HepG2 [13]) | drug sensitivity score (U2OS [14]) | drug sensitivity score (Vero E6 [15]) |
| --- | --- | --- | --- | --- | --- | --- | --- | --- | --- | --- | --- | --- | --- | --- | --- | --- | --- | --- | --- | --- | --- | --- | --- | --- | --- | --- | --- | --- | --- | --- | --- | --- | --- | --- | --- |
| CCn1cc(C(=O)O)c(=O)c2cc(F)c(N3CCNC(C)C3)c(F)c21 (stereo not given) [lomefloxacin] | 107 | 103 | 108 | 91.2 | 104 | 95.8 | 96.8 | 108 | 80.1 | 94.6 | 114 | 111 | 120 | 102 | 94.1 | 105 | 98.3 | 102 | 104 | 104 | 105 | 103 | 98.8 | 106 | 95.3 | > 10 | > 10 | > 10 | > 10 | > 10 | 0 | 2.4 | 0 | 0 | 0 |
| O=C(OC(C(F)(F)F)C(F)(F)F)N1CCC(C(O)(c2ccc3c(c2)OCO3)c2ccc3c(c2)OCO3)CC1 [KML29] | 94.6 | 99.6 | 117 | 97 | 106 | 109 | 105 | 98 | 108 | 92.6 | 96.7 | 96.1 | 94.1 | 106 | 98.8 | 103 | 99.8 | 101 | 95.5 | 95.5 | 94 | 96.2 | 97.8 | 98.3 | 91.7 | > 10 | > 10 | > 10 | > 10 | > 10 | 0 | 0 | 0 | 0 | 0 |
| CO/N=C1/C[C@@H](C(=O)NC[C@@H](O)c2ccccc2)N(C(=O)c2ccc(-c3ccccc3C)cc2)C1 [OT-R-antagonist-1] | 89 | 99 | 99.1 | 86.6 | 98.3 | 96.2 | 106 | 106 | 110 | 99.4 | 102 | 97.6 | 99.4 | 97.7 | 98.5 | 96.9 | 99.8 | 94.5 | 99.1 | 100 | 97 | 90.8 | 95.2 | 84.8 | 103 | > 10 | > 10 | > 10 | > 10 | > 10 | 0 | 0 | 0 | 0 | 0 |
| Cc1ccc([N+](=O)[O-])cc1S(=O)(=O)N(C)/N=C/c1cnc2ccc(Br)cn12 [PIK-75] | 98.8 | 90.3 | 57.9 | 28.4 | 33.3 | 102 | 103 | 52.6 | 35.6 | 46.7 | 97.9 | 84.7 | 26 | 11.1 | 10.6 | 98.6 | 96.6 | 53.8 | 4.2 | 0.8 | 105 | 101 | 69.7 | 0.7 | 5.3 | 0.0669 | 0.0668 | 0.0317 | 0.109 | 0.139 | 18.3 | 17.4 | 26.8 | 23 | 22.3 |
| CC(C)(C)C(=O)CN1C(=O)[C@H](NC(=O)Nc2cccc(C(=O)O)c2)CN(C2CCCCC2)c2ccccc21 [nastorazepide] | 96.6 | 95.4 | 93.1 | 92.7 | 95.8 | 96.7 | 104 | 113 | 98.8 | 118 | 99.9 | 106 | 96.7 | 108 | 95.9 | 100 | 96.7 | 103 | 96.5 | 100 | 104 | 105 | 99.2 | 105 | 98.8 | > 10 | > 10 | > 10 | > 10 | > 10 | 0 | 0 | 0 | 0 | 0 |
| Cc1ncc(OC[C@@]2(c3cccc(F)c3)C[C@H]2C(=O)Nc2ccc(F)cn2)c(C)n1 [lemborexant] | 94.9 | 97.5 | 89.6 | 94.5 | 100 | 100 | 100 | 97.6 | 99.6 | 106 | 97.1 | 103 | 97.8 | 97.9 | 97.3 | 100 | 100 | 96 | 101 | 98.1 | 97.4 | 98.1 | 96.8 | 101 | 96.2 | > 10 | > 10 | > 10 | > 10 | > 10 | 0 | 0 | 0 | 0 | 0 |
| C(=C\c1ccccc1)/CN1CCN(CCOC(c2ccccc2)c2ccccc2)CC1 | 102 | 87.5 | 101 | 99.1 | 80.5 | 113 | 99.3 | 98.5 | 92 | 98.8 | 92.7 | 97.3 | 91.3 | 90.4 | 95.4 | 99.1 | 95.5 | 95.8 | 103 | 100 | 98 | 97 | 95.8 | 91.7 | 91.6 | > 10 | > 10 | > 10 | > 10 | > 10 | 0.6 | 0 | 0 | 0 | 0 |
| C[C@]12CCC(=O)C=C1[C@@H]1C[C@@H]1[C@H]1[C@@H]3[C@@H]4C[C@@H]4[C@@]4(CCC(=O)O4)[C@@]3(C)CC[C@@H]12 [drospirenone] | 86.1 | 96.5 | 96.1 | 94.1 | 108 | 99.5 | 97.9 | 97.4 | 100 | 120 | 99.1 | 102 | 106 | 98.4 | 92.7 | 98.7 | 102 | 103 | 104 | 88.3 | 108 | 102 | 112 | 101 | 89.2 | > 10 | > 10 | > 10 | > 10 | > 10 | 0 | 0 | 0 | 0 | 0 |
| O=c1cc(-c2ccccc2)oc2cc(O)cc(O)c12 [chrysin] | 99.4 | 86.9 | 102 | 91.9 | 94.4 | 94.5 | 92.9 | 106 | 91.7 | 102 | 88.5 | 102 | 93.5 | 100 | 104 | 98.4 | 97 | 101 | 97.4 | 99.2 | 92.5 | 102 | 87.9 | 94.8 | 111 | > 10 | > 10 | > 10 | > 10 | > 10 | 0 | 0 | 0 | 0 | 0 |
| COc1ccc2c(c1OC)C(=O)O[C@@H]2[C@H]1c2c(cc3c(c2OC)OCO3)CCN1C [noscapine] | 115 | 109 | 98 | 110 | 105 | 97.3 | 103 | 102 | 95.9 | 95.8 | 105 | 100 | 86.2 | 100 | 104 | 103 | 98.7 | 101 | 97.5 | 102 | 98.4 | 102 | 96.9 | 104 | 104 | > 10 | > 10 | > 10 | > 10 | > 10 | 0 | 0 | 0 | 0 | 0 |
| O=C(O)C1=CCCNC1 [guvacine] | 99.7 | 85.6 | 102 | 102 | 96.5 | 106 | 99 | 102 | 88.2 | 92.2 | 102 | 97 | 96.3 | 100 | 105 | 105 | 98.9 | 102 | 96.5 | 102 | 100 | 101 | 98 | 104 | 97.5 | > 10 | > 10 | > 10 | > 10 | > 10 | 0 | 0.4 | 0 | 0 | 0 |
| Oc1ccc(-c2nc3cc(O)cc(Br)c3o2)cc1 | 100 | 112 | 102 | 98.3 | 92.1 | 110 | 99.1 | 93.8 | 96.9 | 89.1 | 107 | 102 | 104 | 102 | 95.3 | 99.1 | 105 | 96.9 | 109 | 100 | 110 | 95.6 | 110 | 101 | 98.9 | > 10 | > 10 | > 10 | > 10 | > 10 | 0 | 0 | 0 | 0 | 0 |
| CN(C)c1cc(CNCC(C)(C)C)c(O)c2c1C[C@H]1C[C@H]3[C@H](N(C)C)C(O)=C(C(N)=O)C(=O)[C@@]3(O)C(O)=C1C2=O [omadacycline] | 107 | 95.1 | 100 | 97.4 | 96.4 | 108 | 91.4 | 102 | 88.9 | 92.4 | 101 | 90.9 | 96.9 | 105 | 87 | 102 | 103 | 99.9 | 102 | 98.2 | 96.3 | 101 | 97.1 | 98.8 | 97.3 | > 10 | > 10 | > 10 | > 10 | > 10 | 0 | 0.3 | 0 | 0 | 0 |
| O=C1NC(=O)c2c1c1c3ccccc3[nH]c1c1[nH]c3ccccc3c21 [arcyriaflavin-a] | 98.1 | 107 | 99.9 | 98.9 | 85.4 | 105 | 112 | 95.6 | 104 | 106 | 91.7 | 101 | 86.3 | 43.3 | 47.4 | 104 | 99.8 | 101 | 96.9 | 93.7 | 103 | 103 | 99.5 | 92.1 | 91.7 | > 10 | > 10 | 0.158 | > 10 | > 10 | 0.3 | 0 | 12.6 | 0 | 0 |
